The numbers were not newly measured in patent publication US6054466A, “Inhibitors of farnesyl-protein transferase” (Merck & Co., Inc., priority 1998, dated 2000), which cites them from elsewhere.

Data set [1] deals with Ras processing. Conditions: by inhibiting the rate-limiting step in the isoprenoid biosynthetic pathway.
The test system of data set [2] is farnesyl-protein transferase. Particulars: via HMG-CoA reductase inhibition.

Regarding `CC[C@H](C)C(=O)O[C@H]1C[C@@H](C)C=C2C=C[C@H](C)[C@H](CC[C@@H]3C[C@@H](O)CC(=O)O3)[C@H]21` [lovastatin], the “Block of Ras processing in cells” value in data set [1] is given as “blocks Ras processing in cells”. The “Indirect inhibition of farnesyl-protein transferase in vivo” value in data set [2] is on record as “Indirect inhibition”.
Take `CC[C@H](C)C(=O)O[C@H]1CCC=C2C=C[C@H](C)[C@H](CC[C@@H]3C[C@@H](O)CC(=O)O3)[C@H]21` [compactin]: in data set [2], the “Indirect inhibition of farnesyl-protein transferase in vivo” value is given as “Indirect inhibition”.
